This note sets out measurements from patent publication EP4570800A1, “CRYSTAL FORM OF PYRIDINOPYRIMIDINONE COMPOUND, ACID SALT THEREOF, CRYSTAL FORM OF ACID SALT THEREOF, AND USE” (Wuhan Humanwell Innovative Drug Research and Development …, priority 2022, dated 2024).

The experiment deals with T1, KRAS G12C::SOS1 (Homo sapiens, UniProt Q07889).
T1 sequence (Q07889 564-1049 limits assumed): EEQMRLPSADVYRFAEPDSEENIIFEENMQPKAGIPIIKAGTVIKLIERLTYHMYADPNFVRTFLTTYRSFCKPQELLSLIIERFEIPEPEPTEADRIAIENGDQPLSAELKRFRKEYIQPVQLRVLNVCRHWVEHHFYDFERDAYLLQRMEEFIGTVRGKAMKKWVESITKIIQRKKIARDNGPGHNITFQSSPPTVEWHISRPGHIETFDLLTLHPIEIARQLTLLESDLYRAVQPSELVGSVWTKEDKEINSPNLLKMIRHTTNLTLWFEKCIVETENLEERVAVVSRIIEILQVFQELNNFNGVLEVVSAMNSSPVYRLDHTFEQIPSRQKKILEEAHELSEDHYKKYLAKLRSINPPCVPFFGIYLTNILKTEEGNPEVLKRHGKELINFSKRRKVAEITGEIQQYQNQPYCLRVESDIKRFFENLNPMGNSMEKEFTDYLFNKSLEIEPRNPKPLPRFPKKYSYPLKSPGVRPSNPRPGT
The experiment in a line: Inhibition of KRAS G12C::SOS1 binding (anti-6his-Tb / anti-GST-XL665 fluorescence ratio). The following applies: GST-KRAS G12C and His-SOS1.

Take `Cc1nc(N[C@H](C)c2cccc(S(F)(F)(F)(F)F)c2)c2cn(C3(CF)CC3)c(=O)cc2n1` [Compound of formula I, (R)-6-(1-(fluoromethyl)cyclopropyl)-2-methyl-4-((1-(3-(pentafluorosulfanyl)phenyl)ethyl)amino)pyrido[4,3-d]pyrimidin-7(6H)-one]: the half-maximal inhibitory concentration (IC50) came to 3.94 nM.
